In patent US20100304409A1, “METHOD FOR DETECTING PREMATURE SENESCENCE IN TUMOR CELLS AND A KIT FOR DETECTING PREMATURE SENESCENCE IN TUMOR CELLS” (KOREA INSTITUTE OF RADIOLOGICAL & MEDICAL SCIENCES, priority 2009, published 2010):

Tests used:
Format in all cases: cell-based
LC3-II = assay: Western blot analysis of LC3-II (autophagy biomarker), MCF7; settings: MCF7, tamoxifen 10 μmol/L for 2 days
Protocol: (§1) The breast cancer cell line (MCF7) of Section 1-1, taken 4 days after irradiation exposure was applied to the cells, was washed with PBS, and the cell sample was subjected to protein extraction using a cell lysis buffer (50 mM Tri-HCl, 1% NP-40, 0.25% sodium deoxycholate, 150 mM NaCl, 1 mM PMSF, 50 mM NaF, 0.2 mM Na3VO4, 10 g/mL aprotinin, and 2 g/mL leupeptin). The extracted protein was centrifuged at 11,000 rpm for 10 min. The supernatant was collected and subjected to quantitative analysis using Bradford protein assay (Bradford, M., Anal. Biochem. 72:248-254 (1976)). 20 μg of the protein was added to 2× SDS loading buffer (60 mm Tris-Cl (pH 6.8), 25% glycerol, 2% SDS, 14.4 mM mercaptoethanol, and 0.1% bromophenol blue), and the mixture was heated at 95 for 5 min and subjected to electrophoresis on 8% SDS polyacrylamide gel at 80V for 2 hours. After the electrophoresis was complete, the separated protein was transferred to a nitrocellulose membrane (Whatman). The protein-transferred membrane was placed in a PBS solution containing 5% nonfat dry milk, and allowed to stand at room temperature for 1 hour to be blocked. Primary antibodies diluted to 1:1000 were added thereto, followed by reaction at 4 for 16 hours. […]

[1] = test system: breast cancer cell line (MCF7); assay: Microscopic examination of cell morphology, MCF7; settings: for cell morphology: time course 0-96 hours
Protocol: In order to confirm premature senescence, characteristic morphological changes of cells in the control group and the breast cancer cell line 4 days after irradiation exposure thereof, each of which prepared in Section 1-1, were examined under a microscope (ECLIPSE TE300, Nikon).
In order to ascertain doxorubicin-induced senescence or apoptosis of a tumor cell line, the procedure was carried out in the same manner as in Section 1-2 of Example 1, except that the experiment was conducted according to a time-course schedule (0, 16, 24, 48, and 96 hours) using the cell line of Section 4-1.
Morphological changes of cells in the control group and the tamoxifen-treated group of Section 8-1 were examined under a microscope (ECLIPSE TE300, Nikon).

CD (cathepsin D) [2] = assay: Western blot analysis of CD level, MCF7
Protocol: (§2) The breast cancer cell line (MCF7) of Section 1-1, taken 4 days after irradiation exposure was applied to the cells, was washed with PBS, and the cell sample was subjected to protein extraction using a cell lysis buffer (50 mM Tri-HCl, 1% NP-40, 0.25% sodium deoxycholate, 150 mM NaCl, 1 mM PMSF, 50 mM NaF, 0.2 mM Na3VO4, 10 g/mL aprotinin, and 2 g/mL leupeptin). The extracted protein was centrifuged at 11,000 rpm for 10 min. The supernatant was collected and subjected to quantitative analysis using Bradford protein assay (Bradford, M., Anal. Biochem. 72:248-254 (1976)). 20 μg of the protein was added to 2× SDS loading buffer (60 mm Tris-Cl (pH 6.8), 25% glycerol, 2% SDS, 14.4 mM mercaptoethanol, and 0.1% bromophenol blue), and the mixture was heated at 95 for 5 min and subjected to electrophoresis on 8% SDS polyacrylamide gel at 80V for 2 hours. After the electrophoresis was complete, the separated protein was transferred to a nitrocellulose membrane (Whatman). The protein-transferred membrane was placed in a PBS solution containing 5% nonfat dry milk, and allowed to stand at room temperature for 1 hour to be blocked. Primary antibodies diluted to 1:1000 were added thereto, followed by reaction at 4 for 16 hours. The primary antibodies were polyclonal anti-eEF1A1 antibodies (Abcam, Mass., USA, Cat # ab37969 ) and anti-CD antibodies (Santa Cruz Biotechnology, Calif., USA, Cat # SC-6494 ). The secondary antibodies were horseradish peroxidase-conjugated anti-rabbit antibodies (GE healthcare, Backinghanshire, UK, Cat # NA934V). In addition, an enhanced chemiluminescence (ECL) reagent (Amersham Biosciences, Piscataway, N.J.) was used for confirmation of the reaction. Actin was used as an internal positive control, and primary antibodies were anti-actin antibodies (Santa Cruz Biotechnology, Calif., USA, Cat # SC-1616).
(§3) The signal intensity was scanned with HP Scanjet 2400 (Hewlett-Packard Company, Palo Alto, Calif., USA) and analyzed with ImageJ Program (http://rsb.info.nih.gov/ij/).
(§4) The procedure was performed in the same manner as in Section 1-6 of Example 1, except that the cell line with treatment of doxorubicin at a high dose and the cell line with treatment of doxorubicin at a low dose, each of which prepared in Section 4-1, were used. In order to confirm the occurrence of apoptosis, a level of poly(ADP-ribose) polymerase (PARP) serving as an apoptosis biomarker was detected according to Western blot analysis as in Section 1-6 of Example 1, except that polyclonal anti-PARP antibodies (Cell Signaling Technology, Mass., USA, Cat #9541) were used as primary antibodies.
(§5) The procedure was performed in the same manner as in Section 1-6 of Example 1, except that the cell line prepared in Section 6-1 was used.
(§6) P-pRb and CDK2 were used as markers of G1/S phase transition arrest. Protein levels were confirmed by Western blot analysis in the same manner as in Section 1-6 of Example 1, except that primary antibodies directed against P-pRb were Phosphoro-pRb antibodies (Cell Signaling Technology, Danvers, Mass., Cat #9308), and primary antibodies directed against CDK2 were anti-CDK2 antibodies (Santa Cruze Biotechnology, Calif., USA, Cat #SC-163).
(§7) The procedure was performed in the same manner as in Section 1-6 of Example 1, except that the cell line prepared in Section 8-1 was used. In order to detect changes in levels of LC3-II which is an autophagy biomarker, anti-LC3-II antibodies (Sigma, Mo., USA, Cat #L8919) were used as primary antibodies directed against LC3-II.

[3] = test system: eEF1A1 (eukaryotic elongation factor 1 alpha 1); assay: Western blot analysis of eEF1A1 level, MCF7
Protocol: as §2, §3, §4, §5, §6, §7

CDK2 = assay: Western blot analysis of CDK2 (G1/S arrest marker), MCF7; settings: MCF7, double thymidine treatment (15 h, 0.5 mg/mL, 8 h interval), arrested
Protocol: as §1

[4] = test system: P-pRb (phosphorylated retinoblastoma); assay: Western blot analysis of P-pRb (G1/S arrest marker), MCF7; settings: MCF7, double thymidine treatment (15 h, 0.5 mg/mL, 8 h interval), arrested
Protocol: as §1

[5] = test system: breast cancer cell line (MCF7); assay: Senescence-associated β-galactosidase activity staining, MCF7
Protocol: The cells were washed twice with PBS and fixed with 3% formaldehyde at room temperature for 3 to 5 min. The fixed cells were washed once again with PBS, and 5 mL of a β-galactosidase activity staining solution (1 mg/mL X-Gal, 40 mM citric acid/sodium phosphate (pH 6.0), 5 mM potassium ferrocyanide, 5 mM potassium ferricyanide, 150 mM sodium chloride, and 2 mM magnesium chloride) was added thereto, followed by reaction in an incubator at 37 for 12 to 16 hours. During the reaction, the cells were cultured under light-shielding conditions by wrapping of the culture dish in silver foil.

[6] = test system: eEF1A1 (eukaryotic elongation factor 1 alpha 1); assay: Western blot analysis of eEF1A1 level, H460
Protocol: (§8) The breast cancer cell line (MCF7) of Section 1-1, taken 4 days after irradiation exposure was applied to the cells, was washed with PBS, and the cell sample was subjected to protein extraction using a cell lysis buffer (50 mM Tri-HCl, 1% NP-40, 0.25% sodium deoxycholate, 150 mM NaCl, 1 mM PMSF, 50 mM NaF, 0.2 mM Na3VO4, 10 g/mL aprotinin, and 2 g/mL leupeptin). The extracted protein was centrifuged at 11,000 rpm for 10 min. The supernatant was collected and subjected to quantitative analysis using Bradford protein assay (Bradford, M., Anal. Biochem. 72:248-254 (1976)). […]
as §4, with “antibodies. […]” for “antibodies.”

CD (cathepsin D) [7] = assay: Western blot analysis of CD level, H460
Protocol: as §8
as §4, with “antibodies. […]” for “antibodies.”

[8] = test system: lung cancer cell line H460; assay: Microscopic examination of cell morphology, H460; settings: 96 hours
Protocol: In order to ascertain doxorubicin-induced senescence or apoptosis of a tumor cell line, the procedure was carried out in the same manner as in Section 1-2 of Example 1, except that the experiment was conducted 96 hours after treatment of doxorubicin on the cell line of Section 5-1.

[9] = test system: poly(ADP-ribose) polymerase (PARP); assay: Western blot analysis of PARP cleavage (apoptosis biomarker), MCF7; settings: MCF7, high dose (10 μg/mL)
Protocol: as §8, §4

[10] = MCF7, tamoxifen 10 μmol/L for 2 days, autophagy
[11] = MCF7, double thymidine block, arrested at G1/S
[12] = MCF7, released from DTB, additional 48 h
[13] = MCF7, camptothecin 40 nM, etoposide 30 μM
[14] = MCF7, camptothecin 40 nM, etoposide 30 μM, control group (Con)=1
[15] = H460, high-dose doxorubicin (10 μg/mL), apoptosis
[16] = H460, low-dose doxorubicin (50 ng/mL)
[17] = MCF7, Day 4, Day 0=1, ImageJ scanning, dose not restated (senescence, low dose implied)
[18] = MCF7, high dose (10 μg/mL), apoptotic conditions
[19] = MCF7, low-dose doxorubicin (50 ng/mL)

CC/C(=C(\c1ccccc1)c1ccc(OCCN(C)C)cc1)c1ccccc1 [tamoxifen]
level of LC3-II (Western blot) (LC3-II): increased level | cell morphology (autophagy) ([1]; MCF7, tamoxifen 10 μmol/L for 2 days): occurrence of autophagy | level of CD (Western blot) (CD (cathepsin D) [2]; [10]): decreased | level of eEF1A1 (Western blot) [3, 10]: decreased

Cc1cn([C@H]2C[C@H](O)[C@@H](CO)O2)c(=O)[nH]c1=O [DTB, thymidine]
CDK2 level (Western blot) (CDK2): accumulation | phosphorylated pRb level (Western blot) [4]: decrease | protein level of CD (Western blot) (CD (cathepsin D) [2]; [11]): No significant alteration | CD level (Western blot) (CD (cathepsin D) [2]; [12]): did not exhibit any alteration | protein level of eEF1A1 (Western blot) [3, 11]: No significant alteration | eEF1A1 level (Western blot) [3, 12]: did not exhibit any alteration

CC[C@@]1(O)C(=O)OCc2c1cc1n(c2=O)Cc2cc3ccccc3nc2-1 [camptothecin]
senescence-associated β-galactosidase activity staining ([5]; MCF7, camptothecin 40 nM, etoposide 30 μM, versus control group): exhibited characteristics of premature senescence | level of CD (Western blot) (CD (cathepsin D) [2]; [13]): increases | CD band signal intensity, relative (CD (cathepsin D) [2]; [14]): 7.46 | level of eEF1A1 (Western blot) [3, 13]: decreases | eEF1A1 band signal intensity, relative [3, 14]: 0.73

COc1cccc2c1C(=O)c1c(O)c3c(c(O)c1C2=O)C[C@@](O)(C(=O)CO)C[C@@H]3O[C@H]1C[C@H](N)[C@H](O)[C@H](C)O1 [doxorubicin]
level of eEF1A1 (Western blot) [6, 15]: no changes | level of eEF1A1 (Western blot) [6, 16]: decreases | level of CD (Western blot) (CD (cathepsin D) [7]; [15]): no changes | level of CD (Western blot) (CD (cathepsin D) [7]; [16]): increases | SA-β-gal staining ([5]; MCF7, 4 days after treatment of doxorubicin (50 ng/mL)): positive SA-β-gal staining | cell morphology ([1]; MCF7, high dose (10 μg/mL)): apoptosis-specific morphological changes | cell morphology ([1]; MCF7, low dose (50 ng/mL)): senescence-specific morphological changes | CD band signal intensity, relative (CD (cathepsin D) [2]; [17]): 2.45 | protein level of CD (Western blot) (CD (cathepsin D) [2]; [18]): gradually decreased | level of CD (Western blot) (CD (cathepsin D) [2]; [19]): increases | cell morphology ([8]; H460, high dose (10 μg/mL)): apoptosis-specific morphological changes | cell morphology ([8]; H460, low dose (50 ng/mL)): senescence-specific morphological changes | eEF1A1 band signal intensity, relative [3, 17]: 0.53 | protein level of eEF1A1 (Western blot) [3, 18]: remained unaltered | level of eEF1A1 (Western blot) [3, 19]: decreases | PARP cleavage (apoptotic marker) [9]: induced

COc1cc([C@@H]2c3cc4c(cc3[C@@H](O[C@@H]3O[C@@H]5CO[C@@H](C)O[C@H]5[C@H](O)[C@H]3O)[C@H]3COC(=O)[C@H]23)OCO4)cc(OC)c1O [etoposide]
level of CD (Western blot) (CD (cathepsin D) [2]; [13]): increases | level of eEF1A1 (Western blot) [3, 13]: decreases
